Consider 1 compound from PubChem BioAssay AID1259407 (Chemical Carcinogenesis Research Information System (CCRIS), 2018).

Active and inactive are the calls of the source. No rule for the calls is given here.

For the data set, the system named is CCRIS mutagenicity, Ames/micronucleus/aberration tests. Nature of the data set: CCRIS mutagenicity studies. The settings on record: Method: PREINCUBATION

`NCCO`: the mutagenic call by setting is: (Test System: AMES SALMONELLA TYPHIMURIUM, Strain/Indicator: TA98, Metabolic Activation: HAMSTER, LIVER, S-9, AROCLOR 1254 (10%)) “inactive; negative”; (Test System: AMES SALMONELLA TYPHIMURIUM, Strain/Indicator: TA98, Metabolic Activation: NONE) “inactive; negative”; (Test System: AMES SALMONELLA TYPHIMURIUM, Strain/Indicator: TA98, Metabolic Activation: RAT LIVER S-9, PHENOBARBITAL AND BETA-NAPHTHOFLAVONE) “inactive; negative”; (Test System: AMES SALMONELLA TYPHIMURIUM, Strain/Indicator: TA98, Metabolic Activation: RAT, LIVER, S-9, AROCLOR 1254 (10%)) “inactive; negative”; (Test System: AMES SALMONELLA TYPHIMURIUM, Strain/Indicator: TA100, Metabolic Activation: HAMSTER, LIVER, S-9, AROCLOR 1254 (10%)) “inactive; negative”; (Test System: AMES SALMONELLA TYPHIMURIUM, Strain/Indicator: TA100, Metabolic Activation: NONE) “inactive; negative”. In addition, the mutagenic call runs as follows: (Test System: AMES SALMONELLA TYPHIMURIUM, Strain/Indicator: TA100, Metabolic Activation: RAT LIVER S-9, PHENOBARBITAL AND BETA-NAPHTHOFLAVONE) “inactive; negative”; (Test System: AMES SALMONELLA TYPHIMURIUM, Strain/Indicator: TA100, Metabolic Activation: RAT, LIVER, S-9, AROCLOR 1254 (10%)) “inactive; negative”; (Test System: AMES SALMONELLA TYPHIMURIUM, Strain/Indicator: TA1535, Metabolic Activation: HAMSTER, LIVER, S-9, AROCLOR 1254 (10%)) “inactive; negative”; (Test System: AMES SALMONELLA TYPHIMURIUM, Strain/Indicator: TA1535, Metabolic Activation: NONE) “inactive; negative”; (Test System: AMES SALMONELLA TYPHIMURIUM, Strain/Indicator: TA1535, Metabolic Activation: RAT LIVER S-9, PHENOBARBITAL AND BETA-NAPHTHOFLAVONE) “inactive; negative”; (Test System: AMES SALMONELLA TYPHIMURIUM, Strain/Indicator: TA1535, Metabolic Activation: RAT, LIVER, S-9, AROCLOR 1254 (10%)) “inactive; negative”. Moreover, the mutagenic call is, setting by setting: (Test System: AMES SALMONELLA TYPHIMURIUM, Strain/Indicator: TA1537, Metabolic Activation: HAMSTER, LIVER, S-9, AROCLOR 1254 (10%)) “inactive; negative”; (Test System: AMES SALMONELLA TYPHIMURIUM, Strain/Indicator: TA1537, Metabolic Activation: NONE) “inactive; negative”; (Test System: AMES SALMONELLA TYPHIMURIUM, Strain/Indicator: TA1537, Metabolic Activation: RAT LIVER S-9, PHENOBARBITAL AND BETA-NAPHTHOFLAVONE) “inactive; negative”; (Test System: AMES SALMONELLA TYPHIMURIUM, Strain/Indicator: TA1537, Metabolic Activation: RAT, LIVER, S-9, AROCLOR 1254 (10%)) “inactive; negative”; (Test System: AMES SALMONELLA TYPHIMURIUM, Strain/Indicator: TA1538, Metabolic Activation: NONE) “inactive; negative”; (Test System: AMES SALMONELLA TYPHIMURIUM, Strain/Indicator: TA1538, Metabolic Activation: RAT LIVER S-9, PHENOBARBITAL AND BETA-NAPHTHOFLAVONE) “inactive; negative”. The mutagenic call is, setting by setting: (Test System: E.COLI, Strain/Indicator: WP2UVRA, Metabolic Activation: NONE) “active; positive”; (Test System: E.COLI, Strain/Indicator: WP2UVRA, Metabolic Activation: RAT LIVER S-9, PHENOBARBITAL AND BETA-NAPHTHOFLAVONE) “inactive; negative”.
